Reference: patent US20100144819A1, “Synergistic Methods for Control of Pests” (FMC A[…]. LTD., priority 2008, published 2010)

Test system: German cockroach (Blatella germanica)
Assay: German cockroach mortality on treated filter paper
Format: in vivo, Blattella germanica
Details: 24 h
Text: The presence of a synergistic effect between the two active ingredients is established with the aid of the Colby equation (see Colby, S. R., “Calculating Synergistic and Antagonistic Responses of Herbicide Combinations”, Weeds 1967, 15, pg 20-22): E=X+Y−(XY/100).
Using the method of Colby, the presence of asynergistic interaction between two active ingredients is established by first calculating the expected activity, ‘E’, of the mixture based on activities of the two components applied alone. If ‘E’ is lower than the observed activity, synergy is present. In the equation above, ‘X’ is the percentage control observed when bifenthrin applied alone at rate ‘x’. The ‘Y’ term is percentage control observed when fipronil applied alone at rate ‘y’. The equation calculates ‘E’, the expected activity of the mixture of ‘X’ at rate ‘x’ with ‘Y’ at rate ‘y’ if their effects are strictly additive and no interaction has occurred.
The compositions of the present invention were tested for German cockroach (Blatella germanica) activity in the following manner.
Test solutions were made by dissolving technical grade bifenthrin and fipronil in acetone to provide appropriate rates of application of bifenthrin and fipronil alone, as well as combinations of bifenthrin and fipronil. The active ingredient concentrations tested were from 50 parts per million (0.05 mg of active ingredient/mL or 0.05 g/L) to 500 parts per million (0.5 mg of active ingredient/mL or 0.5 g/L), four replicates per rate. In a fume cabinet, one milliliter of a test solution was applied to a 9 cm Whatman® 2 qualitative filter paper using a calibrated pipette. The application started at the center of the filter paper with individual drops being applied in an outward circular motion so that the entire filter paper was uniformly treated. Acetone only (one mL) was applied in the same manner to provide an untreated control (UTC). The treated filter papers were allowed to dry for two hours. The dried, treated or untreated filter paper was placed into a plastic Petri dish and ten late instar, healthy and active German cockroaches (Blattella germanica) were momentarily immobilized using carbon dioxide and then placed onto the filter paper. The lid of each Petri dish was put on to contain the cockroaches. The Petri dishes were maintained at a temperature of 25° C. to 30° C. at ambient relative humidity out of direct sunlight. German cockroach mortality was assessed after 24 hours by counting the number of alive and the number of knocked down/dead cockroaches.
In order to compare the pesticidal effectiveness of the individual and combination treatments the LC 50 and LC 90 values (lethal concentration in ppm that would effectively knock down/kill 50% or 90% of the test pests) were calculated. In calculating the LC values for the various mixtures of bifenthrin and fipronil, probit analysis was conducted on the fipronil concentration of the mixture. […] The values calculated from the data of Table 1 are in Table 1A below.

[1] = probit analysis of Table 1 data, mixtures as bifenthrin:fipronil

N#Cc1nn(-c2c(Cl)cc(C(F)(F)F)cc2Cl)c(N)c1[S+]([O-])C(F)(F)F [Fipronil, (5-amino-[2,6-dichloro-4(trifluoromethyl)phenyl]-4-[(1R,S)-(trifluoromethyl)sulfinyl]-1H-pyrazole-3-carbonitrile]
% Observed Control (50 ppm (0.05 mg/mL)): 22.5%
Mortality Rep 1 dead/alive (50 ppm (0.05 mg/mL)): 7/3
Mortality Rep 2 dead/alive (50 ppm (0.05 mg/mL)): 1/9
Mortality Rep 3 dead/alive (50 ppm (0.05 mg/mL)): 0/10
Mortality Rep 4 dead/alive (50 ppm (0.05 mg/mL)): 1/9
% Observed Control (100 ppm (0.1 mg/mL)): 42.5%
Mortality Rep 1 dead/alive (100 ppm (0.1 mg/mL)): 6/4
Mortality Rep 2 dead/alive (100 ppm (0.1 mg/mL)): 3/7
Mortality Rep 3 dead/alive (100 ppm (0.1 mg/mL)): 4/6
Mortality Rep 4 dead/alive (100 ppm (0.1 mg/mL)): 4/6
% Observed Control (250 ppm (0.25 mg/mL)): 100%
Mortality Rep 1 dead/alive (250 ppm (0.25 mg/mL)): 10/0
Mortality Rep 2 dead/alive (250 ppm (0.25 mg/mL)): 10/0
Mortality Rep 3 dead/alive (250 ppm (0.25 mg/mL)): 10/0
Mortality Rep 4 dead/alive (250 ppm (0.25 mg/mL)): 10/0
% Observed Control (500 ppm (0.5 mg/mL)): 100%
Mortality Rep 1 dead/alive (500 ppm (0.5 mg/mL)): 10/0
Mortality Rep 2 dead/alive (500 ppm (0.5 mg/mL)): 10/0
Mortality Rep 3 dead/alive (500 ppm (0.5 mg/mL)): 10/0
Mortality Rep 4 dead/alive (500 ppm (0.5 mg/mL)): 10/0
LC 50 [1]: 102 ppm
LC 90 [1]: 179 ppm
